Measured values from patent EP0089154A2, “Ethanolamine derivatives, their preparation and use in pharmaceutical compositions” (BEECHAM GROUP PLC, priority 1982, dated 1983).
Structures can show the parent of a compound that is named as a salt. Where two headings read alike, the source gives them in different places.

Key:
Female CFLP mice = test: Anti-hyperglycaemic activity: subcutaneous glucose load in fasted mice; type: in vivo; conditions: Mus musculus, po, read-out: % REDUCTION IN AREA UNDER BLOOD GLUCOSE CURVE; for inhibition in vivo at 12.5 µmol/kg: dose 12.5 μmol/kg orally
Protocol: Female CFLP mice, weighing approximately 25 g, were fasted for 24 hours prior to the study. The compounds under study were administered orally as an aqueous solution to each of 6 mice. 30 Minutes later a blood sample (10 pl) was obtained from the tail for the analysis of blood glucose. Immediately after taking this blood sample, glucose (1 g/kg body weight) was administered subcutaneously to each mouse. 6 Mice were given water as a control. Blood samples were then obtained from each mouse at 30 minute intervals for 120 minutes.
Compounds that produced a significant (P 0.05) reduction of blood glucose, compared with control mice given water, at any time interval, were considered active. The area under the blood glucose curve over the 2 hour period after the administration of the glucose was calculated for each compound and compared with the value for control animals.

Rat hearts = test: Cardiac activity: Langendorff perfused rat heart
Protocol: Rat hearts were perfused by the Langendorff procedure. Hearts were dissected free within 30 seconds of death and reverse perfused via the aorta and coronary vessels with Krebs-Ringer bicarbonate solution (pH 7.4, 37°C) gassed with 95% oxygen:5% carbon dioxide at a flow rate between 8-12 cm^3/minute. Responses were observed after injection of drug dissolved in isotonic saline into the perfusion media.
Results are expressed as a percentage of the maximum response due to salbutamol.

rat ear = test: Anti-inflammatory activity: croton oil induced rat ear inflammation; type: in vivo; conditions: 1.00 mg/rat ear, topical in 1% croton oil in tetrahydrofuran, ear weight after 6 hours
Protocol: The method used is based on that described by G.Tonelli et al (Endocrinology, 77, 625-634, 1965). An inflammation is induced in the rat ear by the application of 50 pl of a 1% solution of croton oil in tetrahydrofuran, test compounds being dissolved in the irritant vehicle. After 6 hours the inflammation is assessed by killing the animals and weighing the ears. Topical anti-inflammatory activity of a compound is generally considered to be shown when a significant (5% level) reduction in ear weight is seen compared to non- drug treated control.

[1] = dose 1.0 μmol/kg orally, mice fasted 24 hours, glucose 1 g/kg subcutaneously, 2 hour period, compared with control given water
[2] = 30 µg added to perfusate, perfused rat heart, read-out: HEART RATE
[3] = 30 µg added to perfusate, perfused rat heart, read-out: HEART TENSION
[4] = dose 2.5 μmol/kg orally, mice fasted 24 hours, glucose 1 g/kg subcutaneously, 2 hour period, compared with control given water
[5] = mice fasted 24 hours, glucose 1 g/kg subcutaneously, 2 hour period, compared with control given water

CNCCSc1ccc(CC(C)NCC(O)c2cccc(Cl)c2)cc1 (centres unmarked) [Example 23, N-[2-(4-(2-Methylaminoethylthio)phenyl)-1-methlethyl]-2-hydrox-2-(3-chlorophenyl)ethanamine dihydrochloride]
inhibition in vivo at 1 µmol/kg (Female CFLP mice; [1]): 16%

CSc1ccc(C[C@H](C)NC[C@H](O)c2cccc(Cl)c2)cc1 [Example 18]
inhibition in vivo at 5 µmol/kg (Female CFLP mice; 2 h): 16%

COC(=O)CCS(=O)(=O)c1ccc(CC(C)NCC(O)c2cccc(Cl)c2)cc1 (centres unmarked) [Example 10, N-[2-(4-{2-Carbomethoxyethylsulphonyl}phenyl)-1-methylethyl] -2-hydroxy-2-(3-chlorophenyl)ethanamine]
inhibition in vivo at 1 µmol/kg (Female CFLP mice; [1]): 10%
Emax at 30 µg (Rat hearts; [2]): 31%
Emax at 30 µg (Rat hearts; [3]): 91%

CC(Cc1ccc(SCCOc2ccccc2)cc1)NCC(O)c1cccc(Cl)c1 (centres unmarked) [Example 22, N-[2-(4-(2-Phenoxyethylthio)phenyl)-1-methyletlzyl]-2-hydroxy-2-(3-chlorophenyl) ethanamine]
inhibition in vivo at 2.5 µmol/kg (Female CFLP mice; [4]): 23%

CC(Cc1ccc(S(=O)(=O)C(C)(C)C)cc1)NCC(O)c1cccc(Cl)c1 (centres unmarked) [Example 15, N-(2-(4-t-Butylsulphonylphenyl)-1-methylethyl]-2-hydroxy-2-(3-chlorophenyl)ethanamine hydrobromide]
inhibition in vivo at 100 µmol/kg (Female CFLP mice; 2 h): 48%

CC(Cc1ccc(S(=O)(=O)C(C)C)cc1)NCC(O)c1cccc(C(F)(F)F)c1 (centres unmarked) [Example 8, N-[2-(4-Isopropylsulphonylphenyl)-1-methylethyl]-2-hydroxy-2-(3-trifluoromethylphenyl)ethanamine]
Emax at 30 µg (Rat hearts; [2]): 29%
Emax at 30 µg (Rat hearts; [3]): 30%

COC(=O)CCSc1ccc(CC(C)NCC(O)c2cccc(C(F)(F)F)c2)cc1 (centres unmarked) [Example 1, N-[2-(4-(2-Carbomethoxyethylthio)phenyl)-1-methylethyl] 2-hydroxy-2-(3-trifluoromethylphenyl)ethanamine]
inhibition (rat ear): 89%
Activity (rat ear; active = significant (5% level) reduction in ear weight): Active
inhibition in vivo at 12.5 µmol/kg (Female CFLP mice; [5]): 35%
Emax at 30 µg (Rat hearts; [2]): 0%
Emax at 30 µg (Rat hearts; [3]): 4%

COCCSc1ccc(CC(C)NCC(O)c2cccc(Cl)c2)cc1 (centres unmarked) [Example 21, N-[2-(4-(2-Methoxyethylthio)phenyl)-1-methylethyl]-2-hydroxy-2-(3-chlorophenyl)ethanamine hydrochloride]
inhibition in vivo at 1 µmol/kg (Female CFLP mice; 2 h): 31%

CC(Cc1ccc([S+](C)[O-])cc1)NCC(O)c1cccc(Cl)c1 (centres unmarked) [Example 20, N-[2-(4-Methylsulphinylphenyl)-1-methylethyl]-2-hydroxy-2-(3-chlorophenyl) ethanamine]
inhibition in vivo at 12.5 µmol/kg (Female CFLP mice; [5]): 59%

CC(Cc1ccc(SCCSc2ccccc2)cc1)NCC(O)c1cccc(Cl)c1 (centres unmarked) [Example 24, N-[2-(4-(2-Phenylthioethylthio)phenyl)-1-methylethyl]-2-hydroxy-2-(3-chlorophenyl)ethanamine]
inhibition in vivo at 2.5 µmol/kg (Female CFLP mice; [4]): 12%

CC(Cc1ccc(CS(C)(=O)=O)cc1)NCC(O)c1cccc(C(F)(F)F)c1 (stereo not drawn) [Example 11, N-[2-(4-Methylsulphonylmethylphenyl)-l-methylethyl] -2-hydroxy-2-(3-trifluoromethylphenyl)ethanamine]
Emax at 30 µg (Rat hearts; [2]): 67%
Emax at 30 µg (Rat hearts; [3]): 18%

CC(Cc1ccc(SC(C)C)cc1)NCC(O)c1ccccc1 (centres unmarked) [Example 17, N-[2-(4-Isopropylthiophenyl)-1-methylethyl]-2-hydroxy-2-phenylethanamine]
inhibition in vivo at 2.5 µmol/kg (Female CFLP mice; 2 h): 30%

CC(Cc1ccc(CS(=O)(=O)C(C)C)cc1)NCC(O)c1cccc(C(F)(F)F)c1 (centres unmarked) [Example 12, N-[2-(4-Isopropylsulphonylmethylphenyl)-1-methylethyl] -2-hydroxy-2-(3-trifluoromethylphenyl)ethanamine]
Emax at 30 µg (Rat hearts; [2]): 13%
Emax at 30 µg (Rat hearts; [3]): 40%

CSc1ccc(C[C@@H](C)NC[C@H](O)c2cccc(Cl)c2)cc1 [Example 19, (RR, SS)-N-[2-(4-Methylthiophenyl)-1-methylethyl]-2-luydroxy-1-(3-chlorophenyl) ethanamine hydrochloride]
inhibition in vivo at 2.5 µmol/kg (Female CFLP mice; 2 h): 26%

CC(Cc1ccc(SC(C)C)cc1)NCC(O)c1cccc(Cl)c1 (centres unmarked) [Example 3, N-[2-(4-Isopropylthiophenyl)-1-methylethyl]-2-hydroxy-2-(3-chlorophenyl)ethanamine hydrochloride]
inhibition in vivo at 0.5 µmol/kg (Female CFLP mice; 2 h): 28%

CC(Cc1ccc(SCc2ccccc2)cc1)NCC(O)c1cccc(Cl)c1 (centres unmarked) [Example 4, N-[2-(4-Benzylthiophenyl)-1-methylethyl]-2-hydroxy-2-(3-chlorophenyl)ethanamine]
inhibition in vivo at 12.5 µmol/kg (Female CFLP mice; [5]): 17%

CSc1ccc(CC(C)NCC(O)c2cccc(Cl)c2)cc1 (centres unmarked) [Example 2, N-[2-(4-Methylthiophenyl)-1-methylethyl]-2-hydroxy-2-(3-chlorophenyl)ethanamine]
inhibition in vivo at 1 µmol/kg (Female CFLP mice; 2 h): 8%
Emax at 30 µg (Rat hearts; Rattus norvegicus, read-out: HEART RATE): 23%
Emax at 30 µg (Rat hearts; Rattus norvegicus, read-out: HEART TENSION): 25%

CC(Cc1ccc(S(C)(=O)=O)cc1)NCC(O)c1cccc(C(F)(F)F)c1 (centres unmarked) [Example 7, N-[2-(4-Methylsulphonylphenyl)-1-methylethyl]-2-hydroxy-2-(3-trifluoromethylphenyl)ethanamine]
inhibition in vivo at 12.5 µmol/kg (Female CFLP mice; [5]): 48%
Emax at 30 µg (Rat hearts; [2]): 25%
Emax at 30 µg (Rat hearts; [3]): 0%

CC(Cc1ccc(S(=O)(=O)CCCO)cc1)NCC(O)c1cccc(C(F)(F)F)c1 (centres unmarked) [Example 9, N-[2-(4-{3-Hyaroxypropylsulphonyl}phenyl)-1-methylethyl] -2-hydroxy-2-(3-trifluoromethylphenyl)-ethanamine]
inhibition in vivo at 12.5 µmol/kg (Female CFLP mice; [5]): 52%
